Read-outs that look alike come from different tables or passages of the source.
Target: T1, BRD9 (Homo sapiens, UniProt Q9H8M2)
T1 sequence (Q9H8M2 1-597): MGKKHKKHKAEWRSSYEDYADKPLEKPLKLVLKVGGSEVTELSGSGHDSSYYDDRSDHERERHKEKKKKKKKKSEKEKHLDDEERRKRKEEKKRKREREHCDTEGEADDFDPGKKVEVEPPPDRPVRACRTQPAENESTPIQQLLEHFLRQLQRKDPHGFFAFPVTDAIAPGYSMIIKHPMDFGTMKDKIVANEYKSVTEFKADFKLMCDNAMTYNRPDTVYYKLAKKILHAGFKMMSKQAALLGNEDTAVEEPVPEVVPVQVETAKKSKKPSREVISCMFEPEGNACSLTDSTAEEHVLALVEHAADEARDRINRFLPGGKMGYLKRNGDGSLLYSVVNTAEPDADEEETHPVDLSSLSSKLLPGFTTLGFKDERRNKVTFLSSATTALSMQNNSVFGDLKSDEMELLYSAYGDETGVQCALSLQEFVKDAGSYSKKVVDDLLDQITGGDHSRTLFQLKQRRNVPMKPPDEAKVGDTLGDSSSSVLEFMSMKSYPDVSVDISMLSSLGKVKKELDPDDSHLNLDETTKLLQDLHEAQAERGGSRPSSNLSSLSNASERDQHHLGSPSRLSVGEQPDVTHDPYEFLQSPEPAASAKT
Experiment: Degradation of BRD9 (IF), immunofluorescence in MV4-11 cells, 24 hours (Assay Protocol 2)
Assay type: cell-based
Set-up: A suspension of MV4-11 cells (ATCC CRL-9591) was prepared; host or cells: MV4-11
Conditions: BRD9 degradation
In short: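 MV4-11 cells treated with compound 24 h at 37° C., then fixed, permeabilised and immunostained for BRD9 (anti-BRD9 E4Q3F, Alexa 647 secondary, Hoechst counterstain). High-content imaging quantified nuclear BRD9 signal; % BRD9 remaining normalised to DMSO and 100 nM CFT-8634 controls.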

[1] = Assay protocol 2, read-out: DC50
[2] = MV4-11, Assay protocol 2, read-out: Dmax

## COc1cc(-c2cn(C)c(=O)c(C)c2C)cc(OC)c1CN1CCN(c2cccc(C3CCCN3C(=O)/C(C#N)=C/C(C)C)c2)CC1 (mixture of isomers) [Compound B106, (E/Z)-2-(2-(3-(4-(2,6-dimethoxy-4-(1,4,5-trimethyl-6-oxo-1,6-dihydropyridin-3-yl)benzyl)piperazin-1-yl)phenyl)pyrrolidine-1-carbonyl)-4-methylpent-2-enenitrile]
[1]
  DC50: 1.25 to 10 nM
[2]
  Dmax: > 75%

## COc1cc(-c2cn(C)c(=O)c(C)c2C)cc(OC)c1CN1CCN(Cc2cccc3c2CCN(C(=O)/C(C#N)=C/C(C)(C)C)[C@H]3C)CC12CC2 (single isomer, unassigned) [Compound C4, (E/Z)-2-(5-((4-(2,6-dimethoxy-4-(1,4,5-trimethyl-6-oxo-1,6-dihydropyridin-3-yl)benzyl)-4,7-diazaspiro[2.5]octan-7-yl)methyl)-1-methyl-1,2,3,4-tetrahydroisoquinoline-2-carbonyl)-4,4-dimethylpent-2-enenitrile]
[1]
  DC50: 1.25 to 10 nM
[2]
  Dmax: > 75%

## COc1cc(-c2cn(C)c(=O)c(C)c2C)cc(OC)c1CN1CCN(Cc2cccc3c2CCN(C(=O)/C(C#N)=C/c2cccc(C#N)c2)C3C)CC1 (mixture of isomers) [Compound B74, (E/Z)-3-(2-cyano-3-(5-((4-(2,6-dimethoxy-4-(1,4,5-trimethyl-6-oxo-1,6-dihydropyridin-3-yl)benzyl)piperazin-1-yl)methyl)-1-methyl-3,4-dihydroisoquinolin-2(1H)-yl)-3-oxoprop-1-en-1-yl) benzonitrile]
[1]
  DC50: < 1.25 nM
[2]
  Dmax: 40 to 70%

## COc1cc(-c2cn(C)c(=O)c(C)c2C)cc(OC)c1CN1CCN(C(=O)[C@H]2CN(C(=O)/C(C#N)=C/C(C)(C)C)C[C@@H]2C)CC1 [Compound B214]
MV4-11, Table 4, determined according to Assay Protocol 2, read-out: Dmax^2
  Dmax: 50 to 70%
Table 4, determined according to Assay Protocol 2, read-out: DC50^2
  DC50: > 200 nM

## COc1cc(-c2cn(C)c(=O)c(C)c2C)cc(OC)c1CN1CCC(N(C)c2ccc3c(c2)[C@@H](C)N(C(=O)/C(C#N)=C/C(C)(C)C)CC3)CC1 (single isomer, unassigned) [Compound C65]
[1]
  DC50: 1.25 to 10 nM
[2]
  Dmax: 40 to 70%

## COc1cc(-c2cn(C)c(=O)c3[nH]ncc23)cc(OC)c1CN1CCN(Cc2cccc3c2CCN(C(=O)/C(C#N)=C/C(C)(C)C)C3C)CC12CC2 (mixture of isomers) [Compound B158, (E/Z)-2-(5-((4-(2,6-dimethoxy-4-(6-methyl-7-oxo-6,7-dihydro-1H-pyrazolo[3,4-c]pyridin-4-yl)benzyl)-4,7-diazaspiro[2.5]octan-7-yl)methyl)-1-methyl-1,2,3,4-tetrahydroisoquinoline-2-carbonyl)-4,4-dimethylpent-2-enenitrile]
[1]
  DC50: < 1.25 nM
[2]
  Dmax: > 75%

## COc1cc(-c2cn(C)c(=O)c(C)c2C)cc(OC)c1CN1CCN(C(=O)CCCCOc2ccc3c(c2)C(C)N(C(=O)/C(C#N)=C/c2nccs2)CC3)CC1 (mixture of isomers) [Compound B84, (E/Z)-2-(7-((5-(4-(2,6-dimethoxy-4-(1,4,5-trimethyl-6-oxo-1,6-dihydropyridin-3-yl)benzyl)piperazin-1-yl)-5-oxopentyl)oxy)-1-methyl-1,2,3,4-tetrahydroisoquinoline-2-carbonyl)-3-(thiazol-2-yl)acrylonitrile]
[1]
  DC50: 1.25 to 10 nM
[2]
  Dmax: > 75%

## COc1cc(-c2cn(C)c(=O)c(C)c2C)cc(OC)c1CN1CCN(Cc2cccc3c2CCN(C(=O)/C(C#N)=C/C2(C)CCCCC2)C3C)C2(CC2)C1 (mixture of isomers) [Compound B143, (E/Z)-2-(5-((7-(2,6-dimethoxy-4-(1,4,5-trimethyl-6-oxo-1,6-dihydropyridin-3-yl)benzyl)-4,7-diazaspiro[2.5]octan-4-yl)methyl)-1-methyl-1,2,3,4-tetrahydroisoquinoline-2-carbonyl)-3-(1-methylcyclohexyl)acrylonitrile]
[1]
  DC50: 10 to 25 nM
[2]
  Dmax: 70 to 75%

Reference: patent publication US20260092061A1, “COMPOUNDS FOR TARGETED PROTEIN DEGRADATION” (Amphista Therapeutics Limited, priority 2022, published 2026)
